≈ marks a conversion by molar mass, not a printed value.
Legend:
Staph. albus SS 03 = assay type: cell-based; settings: Brain Heart Infusion, estolate and RV11-RV15 previously hydrolized, unit assumed
Staph. aureus SS 09 = assay type: cell-based; settings: Brain Heart Infusion, estolate and RV11-RV15 previously hydrolized, unit assumed
B. anthranis SS 09 = assay type: cell-based; settings: B. anthranis SS 09 (14 bis); Brain Heart Infusion; estolate and RV11-RV15 previously hydrolized; unit assumed
Staph. aureus SS 10 = assay type: cell-based; settings: Brain Heart Infusion, estolate and RV11-RV15 previously hydrolized, unit assumed
C. diphtheriae SS 19 = assay type: cell-based; settings: Brain Heart Infusion, estolate and RV11-RV15 previously hydrolized, unit assumed
B. cereus ATCC 11778 = assay type: cell-based; settings: Brain Heart Infusion, estolate and RV11-RV15 previously hydrolized, unit assumed
E. coli SS 07 = assay type: cell-based; settings: Brain Heart Infusion, estolate and RV11-RV15 previously hydrolized, unit assumed
D. pneumoniae SS 23 [1] = assay type: cell-based; settings: Brain Heart Infusion, estolate and RV11-RV15 previously hydrolized, unit assumed
Cl. tetani SS 17 = assay type: cell-based; settings: Brain Heart Infusion, estolate and RV11-RV15 previously hydrolized, unit assumed
H. tubercolosis SS 03 = assay type: cell-based; settings: Brain Heart Infusion, estolate and RV11-RV15 previously hydrolized, unit assumed
Excerpt: (§1) In the following table I the MIC/ml values are indicated corresponding to the lowest concentration capable of inducing a complete inhibition of the bacterial development.

Kl. pneumoniae SS 04 = assay type: cell-based; settings: Brain Heart Infusion, estolate and RV11-RV15 previously hydrolized, unit assumed
Excerpt: as §1

H. influentiae SS 02 = assay type: cell-based; settings: Brain Heart Infusion, estolate and RV11-RV15 previously hydrolized, unit assumed
S. infantis SS 08 = assay type: cell-based; settings: Brain Heart Infusion, estolate and RV11-RV15 previously hydrolized, unit assumed
E. cloacae SS 07 = assay type: cell-based; settings: Brain Heart Infusion, estolate and RV11-RV15 previously hydrolized, unit assumed
E. coli SS 04 = assay type: cell-based; settings: Brain Heart Infusion, estolate and RV11-RV15 previously hydrolized, unit assumed
D. pneumoniae SS 23 [2] = assay: Experimental infection induced by D. pneumoniae SS 23; assay type: in vivo, Swiss white mice; settings: D. pneumoniae SS 23, mg/kg of erythromycin, survival after 7 days
Experimental: (§2) Swiss white mice of 20 g body weight were used, infected by parenteral administration of lethal amounts of pathogenic […] of Staph. aureus SS 07 and D. pneumoniae SS 23.
(§3) The antibiotics were administered at the time of injecting the infecting germ and 6 and 24 hours later. On the basis of the survival after 7 days, the ED50 values were determined, as reported in the following table II and III, wherein the reliability limits are indicated in brackets.

H. pertussis SS 03 = assay type: cell-based; settings: Brain Heart Infusion, estolate and RV11-RV15 previously hydrolized, unit assumed
Staph. aureus SS 07 [3] = assay: Experimental infection induced by Staph. aureus SS 07; assay type: in vivo, Swiss white mice; settings: Staph. aureus SS 07, mg/kg of erythromycin, survival after 7 days
Experimental: as §2, §3

Acute toxicity = assay type: in vivo; settings: mortality 10 days after treatment, mice
Experimental: The acute toxicity was assessed in Swiss white mice by oral and intravenous route. The LD50 values have been calculated by the methods of Probits, starting from the mortality recorded 10 days after the treatment.

Kl. aerogenes SS 71 = assay type: cell-based; settings: Brain Heart Infusion, estolate and RV11-RV15 previously hydrolized, unit assumed
Sr. marcescens SS 03 = assay type: cell-based; settings: Brain Heart Infusion, estolate and RV11-RV15 previously hydrolized, unit assumed
N. meningitidis SS 04 = assay type: cell-based; settings: Brain Heart Infusion, estolate and RV11-RV15 previously hydrolized, unit assumed
Citrobacter SS 09 = assay type: cell-based; settings: Brain Heart Infusion, estolate and RV11-RV15 previously hydrolized, unit assumed
E. aerogenes SS 011 = assay type: cell-based; settings: Brain Heart Infusion, estolate and RV11-RV15 previously hydrolized, unit assumed
Staph. albus SS 04 = assay type: cell-based; settings: Brain Heart Infusion, estolate and RV11-RV15 previously hydrolized, unit assumed
Pr. mirabilis SS 09 = assay type: cell-based; settings: Brain Heart Infusion, estolate and RV11-RV15 previously hydrolized, unit assumed
Staph. aureus SS 07 [4] = assay type: cell-based; settings: Brain Heart Infusion, estolate and RV11-RV15 previously hydrolized, unit assumed
E. coli SS 06 = assay type: cell-based; settings: Brain Heart Infusion, estolate and RV11-RV15 previously hydrolized, unit assumed
[5] = test system: Strept. haemolyticus SS 18; assay type: cell-based; settings: Brain Heart Infusion, estolate and RV11-RV15 previously hydrolized, unit assumed
Citrobacter SS 05 = assay type: cell-based; settings: Brain Heart Infusion, estolate and RV11-RV15 previously hydrolized, unit assumed
B. anthranis SS 08 = assay type: cell-based; settings: Brain Heart Infusion, estolate and RV11-RV15 previously hydrolized, unit assumed
S. heidelberg SS 18 = assay type: cell-based; settings: Brain Heart Infusion, estolate and RV11-RV15 previously hydrolized, unit assumed
N. gonorreae SS 27 = assay type: cell-based; settings: Brain Heart Infusion, estolate and RV11-RV15 previously hydrolized, unit assumed
Br. melitensis SS 19 = assay type: cell-based; settings: unit assumed
[6] = test system: Strept. haemolyticus SS 17; assay type: cell-based; settings: Brain Heart Infusion, estolate and RV11-RV15 previously hydrolized, unit assumed
Ps. aeruginosa SS 10 = assay type: cell-based; settings: Brain Heart Infusion, estolate and RV11-RV15 previously hydrolized, unit assumed
B. subtilis ATCC 6633 = assay type: cell-based; settings: Brain Heart Infusion, estolate and RV11-RV15 previously hydrolized, unit assumed
Strept. faecalis SS 19 = assay type: cell-based; settings: Brain Heart Infusion, estolate and RV11-RV15 previously hydrolized, unit assumed
C. albicans SS 04 = assay type: cell-based; settings: Brain Heart Infusion, estolate and RV11-RV15 previously hydrolized, unit assumed
[7] = Mucolytic activity: obstruction of the bronchial tract after SO2 inhalation; assay type: in vivo, Sprague Dawley male rats; settings: i.m., 250 mg/kg; SO2, 15 days
Staph. aureus SS 08 = assay type: cell-based; settings: Brain Heart Infusion, estolate and RV11-RV15 previously hydrolized, unit assumed
Pr. vulgaris SS 10 = assay type: cell-based; settings: Brain Heart Infusion, estolate and RV11-RV15 previously hydrolized, unit assumed

Work on CC[C@H]1OC(=O)[C@H](C)[C@@H](O[C@H]2C[C@@](C)(OC)[C@@H](O)[C@H](C)O2)[C@H](C)[C@@H](O[C@@H]2O[C@H](C)C[C@H](N(C)C)[C@H]2O)[C@](C)(O)C[C@@H](C)C(=O)[C@H](C)[C@@H](O)[C@]1(C)O [RV01, erythromycin alpha-mercaptosuccinate] yielded an MIC (Staph. albus SS 03) of 0.1 µg/mL (≈ 0.136 µM), an MIC (Staph. aureus SS 09) of 0.1 µg/mL (≈ 0.136 µM) and an MIC (B. anthranis SS 09) of 0.4 µg/mL (≈ 0.545 µM). For the same molecule, the MIC (Staph. aureus SS 10) was 0.05 µg/mL (≈ 0.0681 µM), the MIC (C. diphtheriae SS 19) was 0.025 µg/mL (≈ 0.0341 µM) and the MIC (B. cereus ATCC 11778) was 0.4 µg/mL (≈ 0.545 µM). It also gave an MIC (E. coli SS 07) of 25 µg/mL (≈ 34.1 µM), an MIC (D. pneumoniae SS 23 [1]) of 0.05 µg/mL (≈ 0.0681 µM) and an MIC (Cl. tetani SS 17) of 0.2 µg/mL (≈ 0.273 µM). The MIC (H. tubercolosis SS 03) was 50 µg/mL (≈ 68.1 µM), the MIC (Kl. pneumoniae SS 04) was 100 µg/mL (≈ 136 µM) and the MIC (H. influentiae SS 02) was 1.5 µg/mL (≈ 2.04 µM). The MIC (S. infantis SS 08) was 100 µg/mL (≈ 136 µM), the MIC (E. cloacae SS 07) was greater than 200 µg/mL and the MIC (E. coli SS 04) was 50 µg/mL (≈ 68.1 µM). The ED50 (D. pneumoniae SS 23 [2]; Streptococcus pneumoniae, SS23, in Mus musculus, sc, 168 h, s.c., read-out: ED50 (reliability limits)) was 52.7 mg/kg, the “ED50 (reliability limits)” value (D. pneumoniae SS 23 [2]; os, 10080 min) was 108.98 (137.60-86.32) mg/kg and the MIC (H. pertussis SS 03) was 0.4 µg/mL (≈ 0.545 µM). For the same molecule, the ED50 (Staph. aureus SS 07 [3]; Staphylococcus aureus, SS07, in Mus musculus, sc, 168 h, s.c., read-out: ED50 (reliability limits)) was 0.95 mg/kg, the “ED50 (reliability limits)” value (Staph. aureus SS 07 [3]; os, 10080 min) was 2.36 (2.68-2.08) mg/kg and the “LD50 (reliability limits)” value (Acute toxicity; i.v., 14400 min) was 458.49 (518.06-405.77) mg.kg. For the same molecule, the “LD50 (reliability limits)” value (Acute toxicity; os) was greater than 3000 mg·kg, the MIC (Kl. aerogenes SS 71) was 100 µg/mL (≈ 136 µM) and the MIC (Sr. marcescens SS 03) was 200 µg/mL (≈ 273 µM). The MIC (N. meningitidis SS 04) was 0.8 µg/mL (≈ 1.09 µM), the MIC (Citrobacter SS 09) was greater than 200 µg/mL and the MIC (E. aerogenes SS 011) was 50 µg/mL (≈ 68.1 µM). The MIC (Staph. albus SS 04) was 0.05 µg/mL (≈ 0.0681 µM), the MIC (Pr. mirabilis SS 09) was greater than 200 µg/mL and the MIC (Staph. aureus SS 07 [4]) was 0.05 µg/mL (≈ 0.0681 µM). For the same molecule, the MIC (E. coli SS 06) was 100 µg/mL (≈ 136 µM), the MIC [5] was 1.5 µg/mL (≈ 2.04 µM) and the MIC (Citrobacter SS 05) was greater than 200 µg/mL. It also gave an MIC (B. anthranis SS 08) of 0.4 µg/mL (≈ 0.545 µM), an MIC (S. heidelberg SS 18) of 100 µg/mL (≈ 136 µM) and an MIC (N. gonorreae SS 27) of 0.8 µg/mL (≈ 1.09 µM). For the same molecule, the MIC (Br. melitensis SS 19) was 3 µg/mL (≈ 4.09 µM), the MIC [6] was 3 µg/mL (≈ 4.09 µM) and the MIC (Ps. aeruginosa SS 10) was 200 µg/mL (≈ 273 µM). It also gave an MIC (B. subtilis ATCC 6633) of 0.01 µg/mL (≈ 0.0136 µM), an MIC (Strept. faecalis SS 19) of 0.1 µg/mL (≈ 0.136 µM) and an MIC (C. albicans SS 04) greater than 200 µg/mL. For the same molecule, the “Partial obstruction (% incidence)” value [7] was 13.33%, the “Total obstruction, compact plug (% incidence)” value [7] was 26.66% and the “Total obstruction, nodular mass (% incidence)” value [7] was 6.66%. The “Total obstruction, pimply mass (% incidence)” value [7] was 13.33%, the MIC (Staph. aureus SS 08) was 0.025 µg/mL (≈ 0.0341 µM) and the MIC (Pr. vulgaris SS 10) was greater than 200 µg/mL.

— patent publication US4476120A, “Thiolic derivatives of erythromycin having therapeutic activity, and pharmaceutical compositions containing them” (Sigma Tau Indistrie Farmaceutiche Riunites, p.A, priority 1982, dated 1984)
